Laboratory results published in patent publication US9339033B2, “1-aryl-5-alkyl pyrazole derivative compounds, processes of making and methods of using thereof” (MERIAL, INC., priority 2007, dated 2016).

How the values were obtained:
[1] = system: Rhipicephalus sanguineus (Brown Dog Tick); assay: Method A: contact activity against ticks; format: in vivo; details: 48 h; for LC50: read-out: LD50; for pest or weed control at 25 µg/mL: read-out: control of Rhipicephalus sanguineus
Excerpt: • Method of Use Examples Method A: Screening Method to Test Contact Activity of Compounds Against Ticks
A solution of the test compound was used to coat the inner wall of glass vials and to treat two filter papers. Once dried, one filter paper was placed in the cap of the vial and the other in the bottom of the vial. Each treated vial was infested with 10 adult Rhipicephalus sanguineus (Brown Dog Tick). Contact of the ticks with residues was induced by holding the vials in a controlled environment (24° C., 90-95% relative humidity) and assessment was performed at 24, 48 hours after application in comparison with untreated controls.

[2] = system: green peach aphid (Myzus persicae); assay: Method J: Myzus persicae test (spray application); format: in vivo; details: concentration of 500 g/ha, spray on infected Chinese cabbage leaf-disks
Excerpt: Method J: Myzus persicae Test (Spray Application)
100% means that all aphids have been killed; 0% means that none of the aphids have been killed.

[3] = system: western flower thrips (Frankliniella occidentalis); assay: Method L: Frankliniella occidentalis test (spray application); format: in vivo; details: concentration of 500 g/ha, spray on French bean leaf-disks
Excerpt: Method L: Frankliniella occidentalis Test (Spray Application)
French bean (Phaseolus vulgaris) leaf-disks are sprayed with a test solution containing the desired concentration of the active ingredient. Once dry, the leaf disks are infested with western flower thrips (Frankliniella occidentalis).
100% means that all the thrips have been killed; 0% means that none of the thrips have been killed.

[4] = system: fall armyworm larvae (Spodoptera frugiperda); assay: Method I: Spodoptera frugiperda test (spray application); format: in vivo; details: concentration of 500 g/ha, spray on maize leaf sections
Excerpt: Method I: Spodoptera frugiperda Test (Spray Application)
Maize (Zea mais) leaf sections are sprayed with a preparation of the active ingredient of the desired concentration. Once dry, the leaf sections are infested with fall armyworm larvae (Spodoptera frugiperda).

[5] = system: am. serpentine leaf miner (Liriomyza trifolii); assay: Method M: Liriomyza trifolii test (spray application); format: in vivo; details: concentration of 500 g/ha, spray on infested French bean leaf-disks
Excerpt: Method M: Liriomyza trifolii Test (Spray Application)
French bean (Phaseolus vulgaris) leaf-disks infested with larvaes of the am. serpentine leaf miner (Liriomyza trifolii) are sprayed with a test solution containing the desired concentration of the active ingredient.
100% means that all the leaf miners have been killed; 0% means that none of the leaf miners have been killed.

Ctenocephalides felis = assay: Method B: contact activity against fleas; format: in vivo; details: 72 hours assessment
Procedure: Method B: Screening Method to Test Contact Activity of Compounds Against Fleas
A solution of the test compound was dispensed, using a pipette, onto filter paper placed into a glass vial. The filter paper was allowed to dry before infesting each vial with 10 adult Ctenocephalides felis. The treated Ctenocephalides felis were held in a controlled environment (24° C., 90-95% relative humidity) and assessment was performed at 24, 48 and 72 hours after application in comparison with untreated controls.

[6] = cited from earlier work
[7] = system: two spotted spidermite (Tetranychus urticae); assay: Method K: Tetranychus urticae test; OP-resistant (spray application); details: read-out: activity (mortality in %), Tetranychus urticae
Procedure: Method K: Tetranychus urticae Test; OP-Resistant (Spray Application)
French beans (Phaseolus vulgaris) which are heavily infested with all stages of the two spotted spidermite (Tetranychus urticae), are sprayed with a preparation of the active ingredient at the desired concentration.
After the specified period of time, mortality in % is determined. 100% means that all spider mites have been killed and 0% means that none of the spider mites have been killed.

Compound	LC50 [1]	pest or weed control at 25 µg/mL [1]	mortality at 500 g/ha [2]	mortality at 500 g/ha [3]	mortality at 500 g/ha [4]	mortality at 500 g/ha [5]	LD50 (Ctenocephalides felis)	oral LD50 [6]	mortality at 100 g/ha [7]
Cc1c(SC(F)(F)F)c(C#N)nn1-c1c(F)cc(C(F)(F)F)cc1F [Compound 6, 3-cyano-1-(2,6-difluoro-4-trifluoromethylphenyl)-5-methyl-4-trifluoromethylthiopyrazole]	< 6 µg/mL	≥ 80%	≥ 80%	≥ 80%					
Cc1cc(C(F)(F)F)cc(Cl)c1-n1nc(C#N)c([S+]([O-])C(F)(F)F)c1C (stereo not shown) [Compound 44, 1-(2-Chloro-6-methyl-4-trifluoromethylphenyl)-3-cyano-5-methyl-4-trifluoromethylsulfinylpyrazole]	< 6 µg/mL	≥ 80%	≥ 80%	≥ 80%					
Cc1c([S+]([O-])C(F)(F)F)c(C#N)nn1-c1c(F)cc(C(F)(F)F)cc1Cl (stereo not shown) [Compound 9, 1-(2-Chloro-6-fluoro-4-trifluoromethylphenyl)-3-cyano-5-methyl-4-trifluoromethylsulfinylpyrazole]	< 6 µg/mL	≥ 80%	≥ 80%	≥ 80%					
N#Cc1nn(-c2c(Cl)cc(C(F)(F)F)cc2Cl)c(CF)c1[S+]([O-])C(F)(F)F (stereo not shown) [Compound 10, 3-Cyano-1-(2,6-dichloro-4-trifluoromethylphenyl)-5-fluoromethyl-4-trifluoromethylsulfinylpyrazole]	< 6 µg/mL	≥ 80%	≥ 80%	≥ 80%	≥ 80%	≥ 80%			
N#Cc1nn(-c2c(Cl)cc(OC(F)(F)F)cc2Cl)c(CF)c1SC(F)(F)F [Compound 16, 3-Cyano-1-(2,6-dichloro-4-trifluoromethoxyphenyl)-5-fluoromethyl-4-trifluoromethylthiopyrazole]	< 6 µg/mL	≥ 80%	≥ 80%	≥ 80%					
N#Cc1nn(-c2c(Cl)cc(C(F)(F)F)cc2Cl)c(CF)c1SC(F)(F)F [Compound 3, 3-cyano-1-(2,6-dichloro-4-trifluoromethylphenyl)-5-fluoromethyl-4-trifluoromethylthiopyrazole]	< 6 µg/mL	≥ 80%	≥ 80%	≥ 80%					
Cc1c([S+]([O-])C(F)(F)F)c(C#N)nn1-c1c(Cl)cc(C(F)(F)F)cc1Cl (stereo not shown) [Compound 5, 3-cyano-1-(2,6-dichloro-4-trifluoromethylphenyl)-5-methyl-4-trifluoromethylsulfinylpyrazole]	< 6 µg/mL	≥ 80%	≥ 80%	≥ 80%	≥ 80%				
Cc1c(SC(F)(F)F)c(C#N)nn1-c1c(Cl)cc(C(F)(F)F)cc1Cl [Compound 1, 3-Cyano-1-(2,6-dichloro-4-trifluoromethylphenyl)-5-methyl-4-trifluoromethylthiopyrazole]	< 6 µg/mL	≥ 80%	≥ 80%	≥ 80%					
N#Cc1nn(-c2c(Cl)cc(C(F)(F)F)cc2Cl)c(N)c1[S+]([O-])C(F)(F)F (stereo not shown) [fipronil]							around 20 ppm		
N#Cc1ccc(CC(=NNC(=O)Nc2ccc(OC(F)(F)F)cc2)c2cccc(C(F)(F)F)c2)cc1 (mixture of isomers) [Metaflumizone]								> 5,000 mg/kg	
Cc1c([S+]([O-])C(F)(F)F)c(C#N)nn1-c1c(Cl)cc(OC(F)(F)F)cc1Cl (stereo not shown) [Compound 19, 3-Cyano-1-(2,6-dichloro-4-trifluoromethoxyphenyl)-5-methyl-4-trifluoromethylsulfinylpyrazole]	< 6 µg/mL	≥ 80%	≥ 80%	≥ 80%					
Cc1c(SC(F)(F)F)c(C#N)nn1-c1c(Cl)cc(OC(F)(F)F)cc1Cl [Compound 17, 3-Cyano-1-(2,6-dichloro-4-trifluoromethoxyphenyl)-5-methyl-4-trifluoromethylthiopyrazole]	< 6 µg/mL	≥ 80%	≥ 80%						
N#Cc1nn(-c2c(Cl)cc(OC(F)(F)F)cc2Cl)c(CF)c1[S+]([O-])C(F)(F)F (stereo not shown) [Compound 18, 3-Cyano-1-(2,6-dichloro-4-trifluoromethoxyphenyl)-5-fluoromethyl-4-trifluoromethylsulfinylpyrazole]	< 6 µg/mL	≥ 80%	≥ 80%						
N#Cc1nn(-c2c(F)cc(C(F)(F)F)cc2Cl)c(CF)c1[S+]([O-])C(F)(F)F (stereo not shown) [Compound 11, 1-(2-Chloro-6-fluoro-4-trifluoromethylphenyl)-3-cyano-5-fluoromethyl-4-trifluoromethylsulfinylpyrazole]	< 6 µg/mL	≥ 80%	≥ 80%						
Cc1c(SC(F)(F)F)c(C#N)nn1-c1c(F)cc(C(F)(F)F)cc1Cl [Compound 7, 1-(2-Chloro-6-fluoro-4-trifluoromethylphenyl)-3-cyano-5-methyl-4-trifluoromethylthiopyrazole]	< 6 µg/mL	≥ 80%	≥ 80%	≥ 80%					
Cc1c([S+]([O-])C(F)(F)F)c(C#N)nn1-c1ccc(C(F)(F)F)cc1F (stereo not shown) [Compound 14, 3-Cyano-1-(2-fluoro-4-trifluoromethylphenyl)-5-methyl-4-trifluoromethylsulfinylpyrazole]	< 6 µg/mL	≥ 80%	≥ 80%						≥ 80%
Cc1c([S+]([O-])C(F)(F)F)c(C#N)nn1-c1c(F)cc(C(F)(F)F)cc1F (stereo not shown) [Compound 12, 3-Cyano-1-(2,6-difluoro-4-trifluoromethylphenyl)-5-methyl-4-trifluoromethylsulfinylpyrazole]	< 6 µg/mL	≥ 80%	≥ 80%	≥ 80%					
N#Cc1nn(-c2c(F)cc(C(F)(F)F)cc2Cl)c(CF)c1SC(F)(F)F [Compound 8, 1-(2-Chloro-6-fluoro-4-trifluoromethylphenyl)-3-cyano-5-fluoromethyl-4-trifluoromethylthiopyrazole]	< 6 µg/mL	≥ 80%	≥ 80%	≥ 80%					
Cc1c(S(=O)(=O)C(F)(F)F)c(C#N)nn1-c1c(Cl)cc(C(F)(F)F)cc1Cl [Compound 4, 3-cyano-1-(2,6-dichloro-4-trifluoromethylphenyl)-5-methyl-4-trifluoromethylsulfonylpyrazole]	< 6 µg/mL	≥ 80%	≥ 80%	≥ 80%					
Cc1cc(C(F)(F)F)cc(Cl)c1-n1nc(C#N)c(SC(F)(F)F)c1C [Compound 43, 1-(2-chloro-6-methyl-4-trifluoromethylphenyl)-3-cyano-5-methyl-4-trifluoromethylthiopyrazole]	< 6 µg/mL	≥ 80%	≥ 80%						
